# In patent publication US20250144127A1, “LONG-CHAIN COMPOUND AND USE THEREOF” (Burgeon Therapeutics Co., Ltd., priority 2021, published 2025):
# Assays:
# [1] = system: primary mouse hepatocytes; assay: Inhibition of de novo lipid synthesis in primary hepatocytes, [1,2-14C]-sodium acetate tracer; assay type: cell-based; details: Hepatocyte, compound 12.5 μM, 4 h, [1,2-14C]-acetate, read-out: Lipid synthesis inhibition (%) (mean ± SD)
# Method: Primary hepatic cell isolation and walling: the mouse liver was lavaged by calcium-free perfusate, then digested using collagenase and mouse primary hepatocytes were obtained by density gradient centrifugation, and were inoculated in 6-well plates at a density of 3×10^5/ml (0.2% gelatin was coated before inoculating). After inoculating, the cells were cultured and adhered for 6 h. The medium was changed to serum-free LG-DMEM (containing 2× double antibody) and starved the cells overnight.
# Isotope tracing: the next day, the medium was switched to serum-free LG-DMEM containing 10 nM insulin and the corresponding concentration of compounds (1950 μL, 4 replicate wells per group); 0.1 μCi of [1,2-^14C]-acetate serum-free medium was added to each well, and the plates were then incubated for 4 h in the incubator.
# Lipid saponification: Add 1.6 mL of ice PBS to each well for washing 3 times, shake the plate to dry and add 600 μL of 0.5 M KOH to each well to lysis for 1 h. Pipette 480 μL into a glass test tube with 400 μL of 20% KOH (methanol was used as solvent), shake and mix well, and then place it in a water bath at 95° C. to saponify for 3 h. The remaining lysate was used for the determination of the concentration of proteins. Add 400 μL of petroleum ether to each tube, pipette 5-6 times and centrifuge at 2500 rpm for 5 min, take 350 μL of the upper layer of the clear solution to the EP tube, and then add 400 μL of petroleum ether to repeat the extraction for 2 times (a total of 3 times). After complete transfer of the supernatant, 200 μL of water and 400 μL of 5N sulfuric acid were added to each tube for acidification, and the mixture was shaken and mixed. Add 400 μL of petroleum ether to each tube, pipette 5-6 times and centrifuge at 2500 rpm for 5 min, take 350 μL of the upper layer of the clear solution to the EP tube, then add 400 μL of petroleum ether and repeat the extraction for 2 times (a total of 3 times). Place in a fume hood and evaporate the petroleum ether overnight.
# Isotope participation quantification: 1700 μL of scintillation solution was added to each tube and read.
# Data processing and analysis: Firstly, the isotopic reference (R control, unit: CCPM/mg protein) of free fatty acids and cholesterol was calculated for the Control group of untreated mouse primary hepatocytes within 4 hours, which represented the basal synthesis. The percent inhibition of lipid synthesis was then calculated for each concentration group of the sample.
# [2] = Oral pharmacokinetics in ICR mice; assay type: in vivo, mouse
# Method: Dosing regimen: 6 normal ICR mice, male, were divided into 2 groups (n=3), one group was orally given the positive control ETC-1002, and one group was orally given the tested compound A3, both administered at a dose of 30 mg/kg; blood was taken from the eye orbits at different time points before and after the administration of the drug, and the plasma drug concentration was detected.
# golden hamster = assay: High-fat and high-cholesterol diet-induced hyperlipidemia model of golden hamster; assay type: in vivo; details: 1 time/day, 7 days, vs control group
# Excerpt: Dosing regimen: The hyperlipidemia model of golden hamster is recognized as one of the ideal animal models for studying hyperlipidemia drug therapy (pharmacodynamic evaluation). In order to preliminarily investigate the existence of potential regulatory effects of the candidate compounds on hepatic lipid metabolism homeostasis, the high-fat and high-cholesterol diet-induced hyperlipidemia model of golden hamster was utilized for preliminary pharmacodynamic evaluation. The specific protocol was as follows. 56 golden hamsters, males, were modeled on high-fat and high-cholesterol diet (Research diet, item number C11953) for two weeks, and 8 golden hamsters were reserved as blank control group. Subsequently, group administration (7 groups, n=8) was performed, i.e., model control group, positive control ETC-1002 30 mg/kg group, compound A3 10 mg/kg and 30 mg/kg group, compound A4 10 mg/kg and 30 mg/kg group, and blank control group. The compounds in each group were configured with saline (0.9% NaCl) and administered at a frequency of 1 time/day for a 7-day dosing cycle.
# Indicator test: The body weight and food intake of golden hamsters were closely monitored during the administration period. After 7 days of administration, blood was collected from the orbital region of each group (starved overnight for about 16 hours), centrifuged to obtain serum, and stored in cryopreservation, and then total cholesterol and LDL cholesterol were detected in the serum. The relative amount of the relevant indexes was calculated as follows: Relative amount (100%)=the amount in the administered group/the amount in the model control group*100%.
# [3] = system: primary hepatocytes from WT mice; assay: De novo lipid synthesis in WT primary hepatocytes, [14C]-citric acid tracer; assay type: cell-based; details: WT mouse hepatocytes, [14C]-citric acid substrate
# ob/ob mice = assay: NASH induced by high-fat, high-sugar, high-cholesterol diet in ob/ob mice; assay type: in vivo, mouse; details: 30 mg/kg, 1 time/day, 10 weeks
# Method: Dosing regimen: 16 ob/ob mice, males, 7-8 weeks, were equally divided into 2 groups (n=8) and fed with high-fat, high-sugar, high-cholesterol diet (Research diet, item number D09100310) for 8 weeks for modeling, and a group of wild-type mice from the same litter was set up as a blank control group. Long-term drug administration was started after 8 weeks of modeling and the groups were model control group, compound A3 30 mg/kg group, and blank control group. The compounds in each group were prepared in saline (0.9% NaCl) and administered at a frequency of 1 time/day for 10 weeks.
# Indicator test: The body weight and feeding changes of ob/ob mice and blank control mice were closely monitored during the administration period. After 10 weeks of administration, the livers of each group were taken and tested for NASH indicators (HE staining, Sirius red staining, immunohistochemistry for inflammatory signals, etc.).
# [4] = system: ACLY knockdown primary hepatocytes; assay: De novo lipid synthesis in ACLY knockdown primary hepatocytes, [14C]-citric acid tracer; assay type: cell-based, mouse; details: [14C]-citric acid substrate
# Excerpt: Test protocol: In order to further investigate the dependence of the inhibitory effect of the series of compounds on de novo lipid synthesis on ACLY, the inventors chose ACLY knockdown primary hepatocytes for further evaluation of de novo lipid synthesis, while compound ETC-1002 was used as a positive control. Specifically, the experimental protocol was as above, and 0.1 μCi/well [^14C]-citric acid was used for tracing.
# [5] = male, mouse, ICR mice, oral, 30 mg/kg, plasma
compound,measurement,setting,value
CC(C)(CCCC/C=C/CCCCCC(C)(C)C(=O)O)C(=O)O [Compound A3],inhibition at 12.5 µM,[1],71.2 ± 4.3%
same,AUC(0-inf),[2]; [5],74200 ng·h/mL
same,AUC(0-t),[2]; [5],63700 ng·h/mL
same,Cmax,[2]; [5],13400 ng/mL
same,half-life,[2]; [5],5.65 h
same,MRT inf,"[2]; male, mouse, ICR mice, oral, 30 mg/kg, plasma, read-out: MRT0-∞",8.01 h
same,plasma exposure relative to Bempedoic acid,[2]; same oral dose,more than 4 times
same,serum LDL cholesterol,golden hamster; 10 mg/kg,significantly reduce
same,serum total cholesterol,golden hamster; 10 mg/kg,significantly reduce
same,serum LDL cholesterol,golden hamster; 30 mg/kg,significantly reduce
same,serum total cholesterol,golden hamster; 30 mg/kg,significantly reduce
same,de novo synthesis of triglycerides,[3]; FIG. 1 A,significantly inhibited
same,de novo synthesis of cholesterol,[3]; FIG. 1 B,significantly inhibited
same,liver whitening and granulomatous sensation due to excessive lipid accumulation,ob/ob mice,significantly reversed
same,degree of hepatic collagen deposition (Sirius red staining),ob/ob mice; vs model control,significantly reduced
same,hepatic inflammatory cell infiltration (macrophage CD68 staining),ob/ob mice; vs model control,significantly reduced
same,liver steatosis and ballooning (H & E staining),ob/ob mice; vs model control,significantly reduced
same,inhibitory effect on de novo synthesis of cholesterol,[4],significantly attenuated or even the inhibitory effect was not manifested
same,inhibitory effect on de novo synthesis of triglycerides,[4],significantly attenuated or even the inhibitory effect was not manifested
